Test results from paper PMC7447632, “Highly functionalized β-lactams and 2-ketopiperazines as TRPM8 antagonists with antiallodynic activity” (Scientific Reports, 2020).
pIC50: −log10 of the molar value.

Experiments:
rTRPM8 = target: T1, rTRPM8 (Rattus norvegicus, UniProt Q8R455); assay: Patch-clamp electrophysiology, whole cell, HEK293 cells expressing rTRPM8; type: cell-based; settings: for pIC50: Patch-clamp, holding potential -60 mV, read-out: IC50 TRPM8 current blockade; for Hill coefficient n: fit of concentration-response curve, -60 mV
T1 construct: expressed in transfected cells; host or cells: HEK293 (stably transfected)
Text: The TRPM8 antagonist activity of the enantiopure β-lactams 24a and 29a was further confirmed electrophysiologically by Patch-clamp experiments, using the whole cell configuration in HEK293 cells expressing TRPM8 channels.
The dose–response curve for both compounds was obtained at a holding potential of -60 mV (Supplementary Fig. S4).
Figure 2 Compounds 24a and 29a block TRPM8-mediated responses evoked by menthol in rTRPM8-expressing HEK293 cells. (A, C). I–V curves obtained in HEK293 cells expressing TRPM8 and exposed to vehicle solution (Vehicle; black trace; A,C), 100 µM menthol (red trace; A,C), 100 µM menthol + 10 µM 24a (blue trace; A) or to 100 µM menthol + 10 µM compound 29a (blue trace; C) (B,D), Concentration − response curves for TRPM8 current blockade by compound 24a (B) or compound 29a (D) at a holding voltage of -60 mV. Peak current data were expressed as pA/pF (to facilitate comparison among cells of different size) and expressed as a function of antagonist concentrations. The solid lines represent fits of the experimental data to the following binding isotherm: y = max/(1 + x/EC50)n, where x is the drug concentration and n the Hill coefficient. The fitted values for n were 0.97 ± 0.05 or 0.98 ± 0.6 for compound 24a or 29a, respectively. Each point is the mean ± SD of 8 (for compound 24a) or 9 (for compound 29a) determinations, each obtained in different cells. TEXT PRINTED IN THE PICTURE: (B) 24a: IC50=1,4±1,1 μM | (D) 29a: IC50=0,8±1,2 μM
Electrophysiological recording was carried out 1–3 days after cells seeded. Membrane currents and voltages were recorded by patch clamp using the whole-cell configuration. For whole-cell recordings of HEK-rTRPM8 cells, pipette solution contained (in mM) 150 NaCl, 5 EGTA, 3 MgCl2 and 10 HEPES, adjusted to pH 7.2 with NaOH, and bath solution contained (in mM) 150 NaCl, 6 CsCl, 1.5 CaCl2, 1 MgCl2, 10 D-glucose and 10 HEPES, adjusted to pH 7.4 with NaOH. Data were sampled at 10 kHz (EPC10 amplifier with PatchMaster 2.53 software, HEKA Electronics, Lambrecht, Germany) and low-pass filtered at 3 kHz for analysis (PatchMaster 2.53 and GraphPad Prism 5, Graphpad Software, USA). The series resistance was < 10 MΩ and to minimize voltage errors was compensated to 60–80%. All measurements were performed at 24–25 °C. The TRPM8 response was quantified as the ratio P2/P1, being P2 the second menthol pulse in the presence of the vehicle or antagonist tested, and P1 refers to the first menthol pulse. This paradigm considers the extend of receptor desensitization as the P2/P1 obtained with the vehicle. Thus, the estimated IC50 values are corrected from receptor desensitization.

hTRPV1 channels = target: T2, hTRPV1 channels (Homo sapiens, UniProt Q8NER1); assay: Ca2+ microfluorometry in HEK cells expressing hTRPV1 (capsaicin); type: cell-based; settings: 1 µM capsaicin; for TRPV1 Blockade (%) 5 µM: 5 µM compound; for TRPV1 Blockade (%) 50 µM: 50 µM compound
T2 construct: expressed in transfected cells; host or cells: HEK (stably transfected)
Experimental: β-Lactam and 2-ketopiperazine derivatives were also assayed for their activity in cell expressing hTRPV1 channels. No significant antagonist activity was measured for any derivatives within both chemotypes (Supplementary Tables S1, S2, and Fig. S3), indicating their selectivity for TRPM8 channels.
Human embryonic kidney cell line (HEK) stably transfected with rTRPM8 or h-TRPV1 were used as previously described. Briefly, cells were seeded in 96-well plates at a cell density of 30,000 cells 2 days before treatment. Buffer used was HBBS (in mM): 138 NaCl, 5.33 KCl, 1.26 CaCl2, 0.5 MgCl-6H2O, 0.4 MgSO4-7H2O, 4 NaHCO3 0.44 KH2PO4, 0.3 Na2HPO4, pH 7.4. The day of treatment the medium was replaced with 100 µL of the dye loading solution Fluo-4 NW supplemented with probenecid 2.5 mM. After incubation, plates were transferred to a fluorescence plate reader (Polastar BMG). In the experimental protocol, the baseline fluorescence was recorded ([…]) for 3 cycles. After, vehicle, compound at different concentrations and the corresponding antagonist, 10 µM AMTB for TRPM8 or 10 µM Ruthenium Red for TRPV1 were added to the well. Fluorescence intensity was recorded during 7 cycles more. Finally, the agonist 100 µM menthol for TRPM8 or 1 µM capsaicin for TRPV1 was added and fluorescence intensity was recorded during 10 cycles more.
Table S1. Activity at hTRPV1 of β–lactams derived from phenylalaninol conjugates
Compd. Isomer Isomer TRPV1 Blockade (%)
Table S2. Activity at hTRPV1 of 2-ketopiperazines derived from phenylalaninol

T2 sequence (Q8NER1 whole entry): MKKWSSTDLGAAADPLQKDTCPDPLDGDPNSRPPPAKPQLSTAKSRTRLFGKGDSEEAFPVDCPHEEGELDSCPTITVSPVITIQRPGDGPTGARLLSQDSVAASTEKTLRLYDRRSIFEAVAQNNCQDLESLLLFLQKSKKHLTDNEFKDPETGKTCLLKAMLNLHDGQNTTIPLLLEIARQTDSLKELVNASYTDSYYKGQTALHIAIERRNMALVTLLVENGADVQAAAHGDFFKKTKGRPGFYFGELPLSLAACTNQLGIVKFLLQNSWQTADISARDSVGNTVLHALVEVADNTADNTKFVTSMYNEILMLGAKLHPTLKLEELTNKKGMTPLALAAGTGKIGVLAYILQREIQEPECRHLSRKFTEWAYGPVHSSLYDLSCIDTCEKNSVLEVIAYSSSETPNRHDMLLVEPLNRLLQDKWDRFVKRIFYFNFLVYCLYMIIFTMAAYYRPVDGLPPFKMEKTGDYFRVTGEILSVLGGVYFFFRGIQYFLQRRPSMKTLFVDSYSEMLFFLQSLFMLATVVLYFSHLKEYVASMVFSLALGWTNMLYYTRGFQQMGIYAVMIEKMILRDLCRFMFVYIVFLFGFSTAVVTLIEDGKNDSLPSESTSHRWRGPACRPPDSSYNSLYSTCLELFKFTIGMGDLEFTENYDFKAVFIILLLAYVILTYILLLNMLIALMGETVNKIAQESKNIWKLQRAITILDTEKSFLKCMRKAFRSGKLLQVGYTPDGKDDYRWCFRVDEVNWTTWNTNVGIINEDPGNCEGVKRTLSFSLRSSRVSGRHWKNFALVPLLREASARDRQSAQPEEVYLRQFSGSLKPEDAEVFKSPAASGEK
T1 sequence (Q8R455 whole entry): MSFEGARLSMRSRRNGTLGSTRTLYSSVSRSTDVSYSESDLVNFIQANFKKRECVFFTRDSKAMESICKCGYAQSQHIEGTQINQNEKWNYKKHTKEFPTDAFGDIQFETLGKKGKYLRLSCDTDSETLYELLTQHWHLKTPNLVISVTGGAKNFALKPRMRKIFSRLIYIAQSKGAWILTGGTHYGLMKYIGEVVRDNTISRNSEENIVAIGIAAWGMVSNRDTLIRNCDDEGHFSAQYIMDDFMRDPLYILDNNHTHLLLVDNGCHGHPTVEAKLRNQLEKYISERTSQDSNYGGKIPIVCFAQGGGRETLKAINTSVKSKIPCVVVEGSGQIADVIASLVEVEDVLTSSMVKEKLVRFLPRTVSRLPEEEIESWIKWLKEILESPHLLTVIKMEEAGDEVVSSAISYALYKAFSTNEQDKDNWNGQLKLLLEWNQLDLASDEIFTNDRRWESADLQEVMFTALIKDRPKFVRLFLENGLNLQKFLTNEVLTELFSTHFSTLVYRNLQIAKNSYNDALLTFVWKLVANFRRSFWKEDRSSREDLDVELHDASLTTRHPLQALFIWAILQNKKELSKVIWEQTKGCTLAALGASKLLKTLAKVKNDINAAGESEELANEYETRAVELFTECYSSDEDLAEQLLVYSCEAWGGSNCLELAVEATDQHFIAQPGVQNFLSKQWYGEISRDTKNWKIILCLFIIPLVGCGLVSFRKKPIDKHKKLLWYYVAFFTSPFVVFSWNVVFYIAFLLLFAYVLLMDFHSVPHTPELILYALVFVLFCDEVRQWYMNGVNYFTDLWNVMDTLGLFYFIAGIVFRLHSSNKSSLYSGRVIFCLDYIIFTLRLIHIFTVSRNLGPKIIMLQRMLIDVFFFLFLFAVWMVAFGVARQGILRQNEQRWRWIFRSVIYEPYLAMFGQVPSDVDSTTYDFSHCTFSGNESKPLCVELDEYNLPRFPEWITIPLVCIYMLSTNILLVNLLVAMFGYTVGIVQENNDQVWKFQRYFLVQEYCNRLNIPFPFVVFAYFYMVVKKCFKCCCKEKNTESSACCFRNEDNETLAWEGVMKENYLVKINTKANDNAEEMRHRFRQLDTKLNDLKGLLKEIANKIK

SMILES	Effect on menthol-mediated TRPM8 activity (I-V curve) (rTRPM8; 10 µM compound, 100 µM menthol, +120 mV)	pIC50 (rTRPM8; 100 µM menthol)	Hill coefficient n (rTRPM8)	TRPV1 Blockade (%) 5 µM (hTRPV1 channels) [%]	TRPV1 Blockade (%) 50 µM (hTRPV1 channels) [%]
C[C@@H]1C(=O)N(C[C@H](Cc2ccccc2)NC(=O)OCc2ccccc2)[C@]1(Cc1ccccc1)C(=O)OCc1ccccc1 [Compound 24a, 4S-Benzyl-4-benzyloxycarbonyl-3S-methyl-1-[(2′S-benzyloxycarbonylamino-3′-phenyl)prop-1′-yl]-2-oxoazetidine]	important reduction on the menthol-mediated TRPM8 activity	5.85	0.97 ± 0.05	9.7±1.1	11.8±3.2
C[C@@H]1C(=O)N(C[C@@H](Cc2ccccc2)NC(=O)OCc2ccccc2)[C@]1(Cc1ccccc1)C(=O)OCc1ccccc1 [Compound 29a, 4S-Benzyl-4-benzyloxycarbonyl-3S-methyl-1-[(2′R-benzyloxycarbonylamino-3′-phenyl)prop-1′-yl]-2-oxoazetidine]	–	6.10	0.98 ± 0.6	8.2±2.1	16.2±4.7
